We go through 1 compound from patent publication US9259420B2, “Tetrandrine pharmaceutical formulations” (CBA Pharma, Inc., priority 2012, dated 2016).

Data set [1] can be described thus: dissolution in water when preparing the liquid dosing formulation. The class given is physicochemical. As to conditions: for 200 mg/kg dosing preparation. As to the method:
Thus three animals were administered 200 mg/kg of each the acid and base formulations in liquid or suspension, respectively, to determine if the dosing and/or variability would improve. […] The solution, and suspension were prepared in water with 0.25% carboxymethylcellulose to facilitate fluidity during dosing. Samples were collected at 30 minutes, 1, 2, 5 and 24 hours after administration of […].

Data set [2] in a line: bioequivalence study in rats: d-tetrandrine plasma concentration after oral gavage of free base versus hydrochloride salt (HPLC). The class given is in vivo, Sprague-Dawley rats. As to the method: A bioequivalence study in rats was conducted to compare the rate and extent to which the active drug ingredient (d-tetrandrine) is absorbed from a free base versus a hydrochloride salt. The drug ingredients were formulated in capsules by the University of Kentucky Center for Pharmaceutical Sciences and Technology (CPST) to administer equivalent amounts of d-tetrandrine to rats via oral gavage. Dosing syringes, capsule filling apparatus and mini capsules (size 9) appropriate for dosing rats were obtained from Torpac (Fairfield, N.J.).
A single rat per time point (destructive sampling) was used to obtain as much blood volume as possible for the HPLC analysis. This was necessary to accommodate analysis with the current UV based HPLC assay that had extensively been used at CBA Pharma. The JPLC analyses were performed at the CBA Pharma facilities, by a scientist with extensive experience in plasma based assay. Results were provided to a second scientist for evaluation and modeling.
Given the limited information on rat d-tetrandrine pharmacokinetics (PK), the studies were conducted in stages. A preliminary study (pilot) to identify the dose required for adequate assay sensitivity was first conducted using approximately 25 mg/kg and approximately 120 mg/kg doses administered in capsules. Four animals per dose level per formulation (acid or base) were administered drug. Sprague-Dawley rats were used for these studies and were obtained from Harlan Laboratories at least one weak prior to the experiments to allow animals to recover from shipping stress and to acclimate. Animals weighed 200-250 g at the time of the experiments. Animals were euthanized one hour after drug administration and blood was collected in EDTA containing tubes via cardiac puncture and rapidly centrifuged to separate the plasma. Typically, enough plasma was obtained to afford duplicate sample analysis. The plasma was stored at −80° C. until it was transported to CBA Pharma facilities in Styrofoam containers containing dry ice.
However, multiple capsules required for dosing higher doses were contributing to the pharmacokinetic variability observed in initial pilot studies. Thus in subsequent studies, younger and smaller animals were administered doses of approximately 150 mg/kg, and blood samples were obtained two hours after drug administration. These smaller animals were more difficult to dose because the size of the tablet. Three animals from the “acid” group and two animals from the “base” group were excluded based on the technician's judgment that some tissue damage had been done to the animals during the gavage dosing. […]
In some cases the plasma concentrations could not be determined due to extremely high interfering peaks. […]

Take `COc1ccc2cc1Oc1ccc(cc1)C[C@H]1c3cc(c(OC)cc3CCN1C)Oc1c(OC)c(OC)cc3c1[C@H](C2)N(C)CC3` [d-tetrandrine]: the solubility in water entry in data set [1] was “did not dissolve in water”. The “rate of absorption into the bloodstream, free base versus di-acid salt” value in data set [2] (free base formulations compared with di-acid salt formulations) was “substantially as rapidly as formulations of the di-acid salt”. Further, the “d-tetrandrine plasma concentrations relative to the limit of the HPLC assay” value in data set [2] (rats, 100 mg/kg, liquid/suspension, oral gavage, sampled up to 48 hours, FIG. 4) is “well above the qualification limit of the HPLC assay for 48 hours”. Besides, the “AUC estimates (Bailer method), acid versus base formulation” value in data set [2] (rats, 100 mg/kg, oral gavage, p>0.05, FIG. 6) was “no statistical or otherwise significant difference”. Besides, the “plasma concentrations and dose normalized plasma concentrations, comparison of d-tetrandrine and d-tetrandrine-2HCl formulations” value in data set [2] (rats, higher dose (approximately 230 mg/kg capsules, 200 mg/kg liquid/suspension), oral gavage, Student t-test, two-tailed, p>0.05, FIG. 2) is on record as “no statistical difference”.
